Reference: ChEMBL document CHEMBL1143269, “2-(6-Phenyl-1H-indazol-3-yl)-1H-benzo[d]imidazoles: design and synthesis of a potent and isoform selective PKC-zeta inhibitor” (Bioorg Med Chem Lett, 2009)
pIC50: −log10 of the molar value.

Assays:
[1] = molecular target: Cyclin-dependent kinase 2 (Homo sapiens, UniProt P24941); assay: Inhibition of human CDK2
[2] = molecular target: Ephrin type-B receptor 4 (Homo sapiens) (UniProt P54760); assay: Inhibition of EphB4 at 10 uM
[3] = Inhibition of rat CAMK2 at 10 uM
[4] = molecular target: Dual specificity mitogen-activated protein kinase kinase 1 (Homo sapiens) (UniProt Q02750); assay: Inhibition of MEK1 at 10 uM
[5] = molecular target: Calcium/calmodulin-dependent protein kinase type IV (Homo sapiens) (UniProt Q16566); assay: Inhibition of CAMK4 at 10 uM
[6] = molecular target: Tyrosine-protein kinase SYK (Homo sapiens) (UniProt P43405); assay: Inhibition of Syk at 10 uM
[7] = molecular target: RAC-gamma serine/threonine-protein kinase (Homo sapiens) (UniProt Q9Y243); assay: Inhibition of PKB gamma at 10 uM
[8] = molecular target: Tyrosine-protein kinase receptor UFO (Homo sapiens) (UniProt P30530); assay: Inhibition of Axl at 10 uM
[9] = molecular target: Serine/threonine-protein kinase Chk1 (Homo sapiens) (UniProt O14757); assay: Inhibition of CHK1 at 10 uM
[10] = molecular target: RAC-alpha serine/threonine-protein kinase (Homo sapiens) (UniProt P31749); assay: Inhibition of PKB alpha at 10 uM
[11] = molecular target: Insulin-like growth factor 1 receptor (Homo sapiens) (UniProt P08069); assay: Inhibition of IGF1R at 10 uM
[12] = molecular target: Epidermal growth factor receptor (Homo sapiens) (UniProt P00533); assay: Inhibition of EGFR at 10 uM
Mus musculus = species on record: Mus musculus; assay: Inhibition of mouse MKK4 at 10 uM
[13] = molecular target: RAF proto-oncogene serine/threonine-protein kinase (Homo sapiens) (UniProt P04049); assay: Inhibition of c-Raf at 10 uM
[14] = molecular target: Tyrosine-protein kinase CSK (Homo sapiens) (UniProt P41240); assay: Inhibition of CSK at 10 uM
[15] = molecular target: Glycogen synthase kinase-3 beta (Homo sapiens) (UniProt P49841); assay: Inhibition of GSK3-beta at 10 uM
[16] = molecular target: Tyrosine-protein kinase ABL1 (Homo sapiens) (UniProt P00519); assay: Inhibition of Abl at 10 uM
[17] = molecular target: BDNF/NT-3 growth factors receptor (Homo sapiens) (UniProt Q16620); assay: Inhibition of TrkB at 10 uM
[18] = molecular target: Aurora kinase A (Homo sapiens) (UniProt O14965); assay: Inhibition of Aurora A at 10 uM
[19] = molecular target: 3-phosphoinositide-dependent protein kinase 1 (Homo sapiens) (UniProt O15530); assay: Inhibition of PDK1 at 10 uM
[20] = molecular target: Tyrosine-protein kinase Lck (Homo sapiens) (UniProt P06239); assay: Inhibition of Lck at 10 uM
[21] = molecular target: Cytoplasmic tyrosine-protein kinase BMX (Homo sapiens) (UniProt P51813); assay: Inhibition of Bmx at 10 uM
[22] = molecular target: Platelet-derived growth factor receptor beta (Homo sapiens) (UniProt P09619); assay: Inhibition of PDGFRbeta at 10 uM
[23] = molecular target: ALK tyrosine kinase receptor (Homo sapiens) (UniProt Q9UM73); assay: Inhibition of ALK at 10 uM
[24] = molecular target: Tyrosine-protein kinase Fyn (Homo sapiens) (UniProt P06241); assay: Inhibition of Fyn at 10 uM
[25] = molecular target: Rho-associated protein kinase 2 (Homo sapiens) (UniProt O75116); assay: Inhibition of Rock2 at 10 uM
[26] = molecular target: Tyrosine-protein kinase Fes/Fps (Homo sapiens) (UniProt P07332); assay: Inhibition of Fes at 10 uM
[27] = molecular target: Angiopoietin-1 receptor (Homo sapiens) (UniProt Q02763); assay: Inhibition of Tie2 at 10 uM
[28] = molecular target: Receptor-type tyrosine-protein kinase FLT3 (Homo sapiens) (UniProt P36888); assay: Inhibition of Flt3 at 10 uM
[29] = molecular target: Tyrosine-protein kinase ZAP-70 (Homo sapiens) (UniProt P43403); assay: Inhibition of Zap70 at 10 uM
[30] = Inhibition of PKA at 10 uM
[31] = molecular target: Proto-oncogene tyrosine-protein kinase Src (Homo sapiens) (UniProt P12931); assay: Inhibition of Src at 10 uM
[32] = molecular target: Proto-oncogene tyrosine-protein kinase receptor Ret (Homo sapiens) (UniProt P07949); assay: Inhibition of Ret at 10 uM
[33] = molecular target: Insulin receptor (Homo sapiens) (UniProt P06213); assay: Inhibition of insulin receptor at 10 uM
[34] = Inhibition of CK2 at 10 uM
[35] = molecular target: Casein kinase I isoform delta (Rattus norvegicus) (UniProt Q06486); assay: Inhibition of rat CK1delta at 10 uM
[36] = molecular target: RAC-beta serine/threonine-protein kinase (Homo sapiens) (UniProt P31751); assay: Inhibition of PKB beta at 10 uM
[37] = molecular target: Ribosomal protein S6 kinase beta-1 (Homo sapiens) (UniProt P23443); assay: Inhibition of P70S6K at 10 uM
Homo sapiens = species on record: Homo sapiens; assay: Selectivity ratio of IC50 for human CDK2 to IC50 for human PKCzeta
[38] = molecular target: T1, Protein kinase C zeta type (Homo sapiens, UniProt Q05513); assay: Inhibition of human PKCzeta
T1 sequence (Q05513 whole entry): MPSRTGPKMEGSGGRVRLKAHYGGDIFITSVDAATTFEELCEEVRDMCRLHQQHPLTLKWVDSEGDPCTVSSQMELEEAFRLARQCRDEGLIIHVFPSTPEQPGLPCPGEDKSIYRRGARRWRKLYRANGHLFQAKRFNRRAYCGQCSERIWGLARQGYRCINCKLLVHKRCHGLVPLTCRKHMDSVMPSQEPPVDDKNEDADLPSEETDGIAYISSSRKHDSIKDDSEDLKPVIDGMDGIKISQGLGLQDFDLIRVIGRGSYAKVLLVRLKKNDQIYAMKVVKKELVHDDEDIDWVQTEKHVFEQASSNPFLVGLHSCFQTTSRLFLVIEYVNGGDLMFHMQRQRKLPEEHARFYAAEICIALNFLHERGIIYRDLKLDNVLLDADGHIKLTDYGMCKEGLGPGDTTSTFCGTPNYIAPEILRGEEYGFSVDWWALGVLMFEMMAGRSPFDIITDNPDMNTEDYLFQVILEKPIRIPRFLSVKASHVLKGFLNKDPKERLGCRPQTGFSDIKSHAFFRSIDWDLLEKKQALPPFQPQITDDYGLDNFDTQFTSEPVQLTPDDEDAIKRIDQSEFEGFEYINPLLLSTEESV

[39] = Inhibition of GSK3

Chain of Angiopoietin-1 receptor (Homo sapiens) (Q02763 whole entry): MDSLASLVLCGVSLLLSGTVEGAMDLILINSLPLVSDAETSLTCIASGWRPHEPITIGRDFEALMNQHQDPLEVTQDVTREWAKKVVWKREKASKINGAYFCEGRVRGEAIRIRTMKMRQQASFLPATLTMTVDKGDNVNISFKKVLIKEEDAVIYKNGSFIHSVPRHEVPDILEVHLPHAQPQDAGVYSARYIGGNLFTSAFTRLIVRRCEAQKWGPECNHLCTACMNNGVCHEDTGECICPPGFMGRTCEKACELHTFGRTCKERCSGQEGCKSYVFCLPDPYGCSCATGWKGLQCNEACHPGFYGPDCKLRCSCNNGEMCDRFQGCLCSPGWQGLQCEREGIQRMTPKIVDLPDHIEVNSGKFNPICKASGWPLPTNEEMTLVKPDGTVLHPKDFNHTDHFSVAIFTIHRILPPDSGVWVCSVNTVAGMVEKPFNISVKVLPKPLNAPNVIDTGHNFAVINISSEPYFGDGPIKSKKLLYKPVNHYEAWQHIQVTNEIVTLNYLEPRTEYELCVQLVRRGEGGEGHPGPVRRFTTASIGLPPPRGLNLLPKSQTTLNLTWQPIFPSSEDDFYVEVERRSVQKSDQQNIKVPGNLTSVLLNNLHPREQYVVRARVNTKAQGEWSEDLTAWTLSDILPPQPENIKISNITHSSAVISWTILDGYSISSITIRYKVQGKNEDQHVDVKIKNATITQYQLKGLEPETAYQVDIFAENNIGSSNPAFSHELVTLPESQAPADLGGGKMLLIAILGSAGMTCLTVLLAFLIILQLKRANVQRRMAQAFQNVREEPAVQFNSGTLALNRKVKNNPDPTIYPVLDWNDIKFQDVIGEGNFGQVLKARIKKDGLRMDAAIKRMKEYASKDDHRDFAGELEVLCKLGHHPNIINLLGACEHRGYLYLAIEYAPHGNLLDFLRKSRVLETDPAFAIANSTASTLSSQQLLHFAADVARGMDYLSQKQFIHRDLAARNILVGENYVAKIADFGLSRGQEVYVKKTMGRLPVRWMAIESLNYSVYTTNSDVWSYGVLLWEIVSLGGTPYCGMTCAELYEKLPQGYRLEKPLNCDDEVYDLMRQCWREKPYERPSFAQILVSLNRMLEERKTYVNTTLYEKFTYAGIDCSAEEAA
Chain of Tyrosine-protein kinase Fes/Fps (Homo sapiens) (P07332 whole entry): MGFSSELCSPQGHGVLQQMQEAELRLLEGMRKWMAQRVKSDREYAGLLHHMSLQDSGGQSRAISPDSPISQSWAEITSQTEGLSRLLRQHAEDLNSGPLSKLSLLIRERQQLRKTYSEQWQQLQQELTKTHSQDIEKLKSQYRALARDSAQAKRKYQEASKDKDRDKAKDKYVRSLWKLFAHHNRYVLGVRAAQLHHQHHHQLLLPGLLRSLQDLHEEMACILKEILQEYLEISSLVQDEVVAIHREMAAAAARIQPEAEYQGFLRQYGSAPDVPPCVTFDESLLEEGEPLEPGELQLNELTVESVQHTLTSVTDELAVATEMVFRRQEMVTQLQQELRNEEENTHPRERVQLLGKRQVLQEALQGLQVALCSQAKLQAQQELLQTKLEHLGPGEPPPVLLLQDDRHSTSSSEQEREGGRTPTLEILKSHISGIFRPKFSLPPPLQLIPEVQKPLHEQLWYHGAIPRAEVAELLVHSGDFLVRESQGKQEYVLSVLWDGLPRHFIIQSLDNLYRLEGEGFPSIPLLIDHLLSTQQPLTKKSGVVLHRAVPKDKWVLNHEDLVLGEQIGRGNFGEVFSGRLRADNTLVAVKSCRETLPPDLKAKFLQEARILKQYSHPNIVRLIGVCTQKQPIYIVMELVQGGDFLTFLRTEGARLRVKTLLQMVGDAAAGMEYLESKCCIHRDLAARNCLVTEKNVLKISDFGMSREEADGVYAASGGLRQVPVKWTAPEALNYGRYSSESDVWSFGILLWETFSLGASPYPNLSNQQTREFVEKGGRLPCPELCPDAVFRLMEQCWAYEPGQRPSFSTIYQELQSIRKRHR
Chain of Calcium/calmodulin-dependent protein kinase type IV (Homo sapiens) (Q16566 whole entry): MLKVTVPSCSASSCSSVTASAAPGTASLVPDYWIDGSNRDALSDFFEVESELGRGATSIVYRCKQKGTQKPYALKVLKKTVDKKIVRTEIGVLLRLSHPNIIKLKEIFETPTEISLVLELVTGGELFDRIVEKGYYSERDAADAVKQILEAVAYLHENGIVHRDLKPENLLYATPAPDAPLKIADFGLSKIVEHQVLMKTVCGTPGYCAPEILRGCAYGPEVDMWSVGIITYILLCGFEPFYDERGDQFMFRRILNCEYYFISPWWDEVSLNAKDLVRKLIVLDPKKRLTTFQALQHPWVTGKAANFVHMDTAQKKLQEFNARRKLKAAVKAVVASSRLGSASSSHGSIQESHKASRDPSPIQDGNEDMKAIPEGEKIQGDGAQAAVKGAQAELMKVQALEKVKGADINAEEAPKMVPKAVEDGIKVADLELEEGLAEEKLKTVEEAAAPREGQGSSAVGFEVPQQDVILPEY
Chain of RAF proto-oncogene serine/threonine-protein kinase (Homo sapiens) (P04049 whole entry): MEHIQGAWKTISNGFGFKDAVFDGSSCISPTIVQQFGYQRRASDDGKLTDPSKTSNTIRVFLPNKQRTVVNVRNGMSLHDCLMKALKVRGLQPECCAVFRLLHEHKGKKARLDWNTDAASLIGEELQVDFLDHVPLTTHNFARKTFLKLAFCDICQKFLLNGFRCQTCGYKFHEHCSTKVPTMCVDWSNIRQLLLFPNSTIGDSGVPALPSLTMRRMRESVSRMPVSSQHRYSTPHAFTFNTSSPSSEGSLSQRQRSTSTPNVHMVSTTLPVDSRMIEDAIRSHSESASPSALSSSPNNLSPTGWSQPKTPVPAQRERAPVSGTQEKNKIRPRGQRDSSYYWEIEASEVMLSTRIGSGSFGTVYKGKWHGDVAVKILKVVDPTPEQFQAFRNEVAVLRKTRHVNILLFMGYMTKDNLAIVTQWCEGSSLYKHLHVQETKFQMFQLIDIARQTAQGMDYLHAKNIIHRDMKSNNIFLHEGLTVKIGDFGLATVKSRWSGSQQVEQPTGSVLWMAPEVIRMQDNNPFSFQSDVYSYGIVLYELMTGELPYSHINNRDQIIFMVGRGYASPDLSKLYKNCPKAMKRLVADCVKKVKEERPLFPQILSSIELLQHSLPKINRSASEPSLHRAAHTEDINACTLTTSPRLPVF
Chain of Tyrosine-protein kinase CSK (Homo sapiens) (P41240 2-450 limits assumed): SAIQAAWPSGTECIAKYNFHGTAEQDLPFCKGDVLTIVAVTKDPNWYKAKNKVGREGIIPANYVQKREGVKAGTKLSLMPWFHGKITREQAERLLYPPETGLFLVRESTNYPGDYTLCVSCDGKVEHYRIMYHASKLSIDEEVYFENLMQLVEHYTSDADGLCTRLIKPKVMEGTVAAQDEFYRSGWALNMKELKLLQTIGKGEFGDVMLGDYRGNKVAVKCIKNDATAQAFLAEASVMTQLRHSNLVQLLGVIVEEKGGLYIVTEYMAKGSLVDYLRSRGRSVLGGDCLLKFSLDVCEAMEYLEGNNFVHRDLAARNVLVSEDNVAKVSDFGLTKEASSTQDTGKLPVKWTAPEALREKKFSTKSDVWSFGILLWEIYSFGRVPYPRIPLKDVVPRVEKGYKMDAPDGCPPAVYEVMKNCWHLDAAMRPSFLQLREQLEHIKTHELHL
Chain of Rho-associated protein kinase 2 (Homo sapiens) (O75116 whole entry, looked up): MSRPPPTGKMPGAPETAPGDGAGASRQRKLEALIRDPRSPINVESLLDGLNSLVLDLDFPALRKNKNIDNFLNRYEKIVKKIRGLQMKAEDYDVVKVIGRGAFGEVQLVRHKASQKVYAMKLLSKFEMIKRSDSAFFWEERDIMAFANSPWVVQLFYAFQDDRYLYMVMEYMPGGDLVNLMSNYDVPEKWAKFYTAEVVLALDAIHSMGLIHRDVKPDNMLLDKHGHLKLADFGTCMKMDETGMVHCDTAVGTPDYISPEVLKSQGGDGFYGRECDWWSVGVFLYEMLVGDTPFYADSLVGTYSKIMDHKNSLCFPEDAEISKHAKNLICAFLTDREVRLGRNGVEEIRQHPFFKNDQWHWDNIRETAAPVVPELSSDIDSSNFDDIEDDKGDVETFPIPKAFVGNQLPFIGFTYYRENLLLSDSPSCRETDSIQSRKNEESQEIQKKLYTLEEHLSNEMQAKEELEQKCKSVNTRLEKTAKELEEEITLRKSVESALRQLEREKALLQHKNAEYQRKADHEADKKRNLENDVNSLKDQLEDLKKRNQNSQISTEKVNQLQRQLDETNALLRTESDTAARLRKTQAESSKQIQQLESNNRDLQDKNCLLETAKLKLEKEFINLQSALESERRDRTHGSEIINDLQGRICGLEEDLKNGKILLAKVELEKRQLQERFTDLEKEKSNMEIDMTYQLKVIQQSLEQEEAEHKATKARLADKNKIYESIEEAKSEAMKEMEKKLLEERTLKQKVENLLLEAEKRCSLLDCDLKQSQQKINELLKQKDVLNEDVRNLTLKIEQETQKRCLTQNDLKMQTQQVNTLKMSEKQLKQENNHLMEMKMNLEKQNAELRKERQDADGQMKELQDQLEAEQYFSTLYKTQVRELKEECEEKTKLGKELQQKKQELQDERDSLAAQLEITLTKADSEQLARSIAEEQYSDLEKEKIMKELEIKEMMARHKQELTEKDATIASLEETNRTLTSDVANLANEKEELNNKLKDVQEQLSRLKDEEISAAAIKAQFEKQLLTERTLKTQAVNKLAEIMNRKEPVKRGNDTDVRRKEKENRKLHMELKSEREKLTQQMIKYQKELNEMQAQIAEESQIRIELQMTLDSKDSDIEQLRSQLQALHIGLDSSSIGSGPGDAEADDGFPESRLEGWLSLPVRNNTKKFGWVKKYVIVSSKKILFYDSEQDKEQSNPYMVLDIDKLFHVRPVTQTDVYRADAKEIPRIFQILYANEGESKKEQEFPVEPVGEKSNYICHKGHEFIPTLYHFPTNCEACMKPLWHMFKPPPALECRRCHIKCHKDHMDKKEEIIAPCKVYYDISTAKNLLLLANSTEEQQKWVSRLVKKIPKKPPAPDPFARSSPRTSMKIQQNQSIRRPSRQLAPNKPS

In the case of `CN1CCN(c2cccc3[nH]c(-c4n[nH]c5cc(-c6ccc(O)cc6)ccc45)nc23)CC1`, the pIC50 [1] was 7.88.

`CN1CCN(c2cccc3[nH]c(-c4n[nH]c5cc(-c6ccc(CO)cc6)ccc45)nc23)CC1` gave a pIC50 [1] of 4.67.

Molecule `CN1CCN(c2cccc3nc(-c4n[nH]c5cc(-c6ccc(N)cc6)ccc45)[nH]c23)CC1` has an inhibition [2] of less than 50%, an inhibition [3] of less than 50% and an inhibition [4] of less than 50%. For the same molecule, the inhibition [5] was less than 50%, the inhibition [6] was less than 50% and the inhibition [7] was less than 50%. For the same molecule, the inhibition [8] was less than 50%, the inhibition [9] was less than 50% and the inhibition [10] was less than 50%. It also gave an inhibition [11] of less than 50%, an inhibition [12] of less than 50% and an inhibition (Mus musculus) of less than 50%. The inhibition [13] was less than 50%, the inhibition [14] was less than 50% and the inhibition [15] was less than 50%. For the same molecule, the inhibition [16] was less than 50%, the inhibition [17] was less than 50% and the inhibition [18] was less than 50%. It also gave an inhibition [19] of less than 50%, an inhibition [20] of less than 50% and an inhibition [21] of less than 50%. For the same molecule, the inhibition [22] was less than 50%, the inhibition [23] was less than 50% and the inhibition [24] was less than 50%. The inhibition [25] was less than 50%, the inhibition [26] was less than 50% and the inhibition [27] was less than 50%. The inhibition [28] was less than 50%, the inhibition [29] was less than 50% and the inhibition [30] was less than 50%. It also gave an inhibition [31] of less than 50%, an inhibition [32] of less than 50% and an inhibition [33] of less than 50%. It also gave an inhibition [34] of less than 50%, an inhibition [35] of less than 50% and an inhibition [36] of less than 50%. The inhibition [37] was less than 50%.

Molecule `COc1ccc(-c2ccc3c(-c4nc5c(N6CCN(C)CC6)cccc5[nH]4)n[nH]c3c2)c(OC)c1` has a pIC50 [1] of 5.00.

`COc1cc(O)ccc1-c1ccc2c(-c3nc4c(N5CCN(C)CC5)cccc4[nH]3)n[nH]c2c1` gave an inhibition [2] of less than 50%, an inhibition [3] of less than 50% and an inhibition [4] of less than 50%. For the same molecule, the pIC50 [1] was 6.99, the inhibition [5] was less than 50% and the inhibition [6] was less than 50%. The inhibition [7] was less than 50%, the inhibition [8] was less than 50% and the inhibition [9] was less than 50%. It also gave an inhibition [10] of less than 50%, an inhibition [11] of less than 50% and an inhibition [12] of less than 50%. It also gave an inhibition (Mus musculus) of less than 50%, an inhibition [13] of less than 50% and an inhibition [14] of less than 50%. It also gave an inhibition [15] of less than 50%, an inhibition [16] of less than 50% and an inhibition [17] of less than 50%. The inhibition [18] was less than 50%, the inhibition [19] was less than 50% and the inhibition [20] was less than 50%. For the same molecule, the inhibition [21] was less than 50%, the inhibition [22] was less than 50% and the inhibition [23] was less than 50%. For the same molecule, the inhibition [24] was less than 50%, the inhibition [25] was less than 50% and the inhibition [26] was less than 50%. It also gave an inhibition [27] of less than 50%, an inhibition [28] of less than 50% and an inhibition [29] of less than 50%. For the same molecule, the inhibition [30] was less than 50%, the inhibition [31] was less than 50% and the inhibition [32] was less than 50%. It also gave an inhibition [33] of less than 50%, an inhibition [34] of less than 50% and an inhibition [35] of less than 50%. The inhibition [36] was less than 50% and the inhibition [37] was less than 50%.

`COc1cc(F)ccc1-c1ccc2c(-c3nc4c(N5CCN(C)CC5)cccc4[nH]3)n[nH]c2c1` showed a pIC50 [1] of 5.00, a Ratio IC50 (Homo sapiens) of 0.5 and a pIC50 [38] of 4.72.

`COc1cc(-c2ccc3c(-c4nc5c(N6CCN(C)CC6)cccc5[nH]4)n[nH]c3c2)ccc1O` gave a pIC50 [1] of 8.39, a Ratio IC50 (Homo sapiens) of 1.8 and a pIC50 [38] of 8.65.

Molecule `CNc1ccc(-c2ccc3c(-c4nc5c(N6CCN(C)CC6)cccc5[nH]4)n[nH]c3c2)cc1` has a pIC50 [1] of 3.96.

For `CN1CCN(c2cccc3[nH]c(-c4n[nH]c5cc(-c6ccc7c[nH]nc7c6)ccc45)nc23)CC1`, the pIC50 [38] was 5.97.

`CN1CCN(c2cccc3[nH]c(-c4n[nH]c5cc(-c6ccc7[nH]ccc7c6)ccc45)nc23)CC1` showed a pIC50 [1] of 5.00, a Ratio IC50 (Homo sapiens) of 2.5 and a pIC50 [38] of 5.39.

`CN1CCN(c2cccc3[nH]c(-c4n[nH]c5cc(-c6cccc(N)c6)ccc45)nc23)CC1` gave a pIC50 [1] of 5.21, a Ratio IC50 (Homo sapiens) of 4 and a pIC50 [38] of 5.82.

With `CC(=O)c1ccc(-c2ccc3c(-c4nc5c(N6CCN(C)CC6)cccc5[nH]4)n[nH]c3c2)cc1` the pIC50 [1] was 5.00.

`O=C(NC1CC1)c1n[nH]c2cc(-c3ccc(O)cc3)c(Br)cc12` gave a pIC50 [1] of 8.30 and a pIC50 [39] of 9.10.

For `CN1CCN(c2cccc3[nH]c(-c4n[nH]c5cc(-c6ccc(CN)cc6)ccc45)nc23)CC1`, the pIC50 [1] was 5.00.

Work on `CN1CCN(c2cccc3[nH]c(-c4n[nH]c5cc(-c6ccc(N)c(F)c6)ccc45)nc23)CC1` yielded a pIC50 [1] of 5.76.

In the case of `CN1CCN(c2cccc3[nH]c(-c4n[nH]c5cc(-c6ccc(N(C)C)cc6)ccc45)nc23)CC1`, the pIC50 [38] was 5.88.

`CN1CCN(c2cccc3[nH]c(-c4n[nH]c5cc(-c6ccc(C(=O)O)cc6)ccc45)nc23)CC1` gave a pIC50 [1] of 5.00.

Work on `COc1ccccc1-c1ccc2c(-c3nc4c(N5CCN(C)CC5)cccc4[nH]3)n[nH]c2c1` yielded a pIC50 [1] of 5.00, a Ratio IC50 (Homo sapiens) of 1.8 and a pIC50 [38] of 5.26.

In the case of `COc1cc(-c2ccc3c(-c4nc5c(N6CCN(C)CC6)cccc5[nH]4)n[nH]c3c2)ccc1N`, the pIC50 [1] was 6.61.

`CN1CCN(c2cccc3[nH]c(-c4n[nH]c5cc(-c6ccc(S(N)(=O)=O)cc6)ccc45)nc23)CC1` gave a pIC50 [38] of 5.05.

For `CC(=O)Nc1ccc(-c2ccc3c(-c4nc5c(N6CCN(C)CC6)cccc5[nH]4)n[nH]c3c2)cc1`, the pIC50 [1] was 5.00, the Ratio IC50 (Homo sapiens) was 1.1 and the pIC50 [38] was 5.06.
